{
  "source": "patent US11242344B2",
  "about": "“(4-hydroxypyrrolidin-2-yl)-heterocyclic compounds and methods of use thereof” (Genentech, Inc., priority 2017, dated 2022)",
  "key": {"BRD4": {"target": "BRD4 (Homo sapiens (Human), UniProt O60885)", "experiment": "BRD4 degradation assay in EOL-1 cells, high content fluorescence imaging", "assay_type": "cell-based", "conditions": "4 hours; for DC50: BRD4 immunofluorescence, read-out: EOL-1 EC50; for EOL-1 Sinf (%): maximum degradation, percent change in protein level (-100% = complete loss)", "experimental": "PC3 (Steap-1) prostate cancer cells: PC3 (Steap-1) prostate cancer cells (PC3 cells overexpressing the surface protein Steap-1) were seeded on day 1 at a density of 200,000 cells/mL in 45 μl/well in cell plates in a 384 well Greiner/Perkin Elmer Cell Carrier TC Treated plate (part #6007430) in Assay Medium (RPMI, 10% FBS, 2 mM Glutamax). Cells were incubated overnight at 37° C. degrees. On day 2, compounds were serially diluted 3-fold in DMSO spanning the concentrations 10 mM to 8.6 nM, in 384 well clear polypropylene plates (Greiner Cat #781201). DMSO and 10 mM of a control PROTAC (dBET1, as described in WO 2017/024317, p. 235, structure below) (control compound) were added to designated wells. Compounds and controls were diluted 50-fold (2 μl of DMSO stock into 98 μl) into Assay Medium. 5 μl of the diluted compounds was transferred to the cell plates. The final top concentration of the test compounds in the cell plates was 20 μM. Cell plates were incubated at 37° C., for 4 hours. Fixation and permeabilization were carried out using a Biotek EL406 plate washer and dispenser as follows. Cells were fixed by addition of 15 μL of 16% paraformaldehyde (Electron Microscopy Sciences #15710-S) directly to the 50 μL cell culture medium in each well using the peristaltic pump 5 μL cassette on a Biotek EL406 (final concentration of formaldehyde was 3.7% w/v). Samples were incubated 30 minutes. Well contents were aspirated and 50 μL/well of Phosphate Buffered Saline (PBS) containing 0.5% w/v bovine serum albumen, 0.5% v/v Triton X-100 (Antibody Dilution Buffer) was added to each well. Samples were incubated for 30 minutes. Well contents were aspirated and washed 3 times with 100 μL/well of PBS.\nEOL-1 cells: The BRD4 degradation assay was performed on EOL-1 cells using the same procedure as described above for PC3 (Steap-1) prostate cancer cells, except EOL-1 cells were seeded at 1,000,000 cells/mL. Following aspiration and washing of the well contents with 100 μL/well of PBS, 40 μL PBS plus 10% normal goat serum was added per well for 20 minutes at room temperature.\nFor both the PC3 and EOL-1 cell assays, immunofluorescence staining of BRD4 was carried out using a Biotek EL406 plate washer and dispenser as follows. The well supernatant was aspirated from the wells and 25 μL/well of rabbit mAb Anti-BRD4 [EPR5150(2)] abeam 128874 diluted 1:500 in Antibody Dilution Buffer is dispensed. Samples were incubated for 2 hours at room temperature. Samples were washed 4 times with 100 μL/well of PBS. 25 μL/well of secondary antibody solution (Goat Anti-Rabbit IgG, DyLight 488 Conjugated Highly Cross-adsorbed #35553 1:1000) diluted 1:1000 and Hoechst 33342 1 μg/ml diluted in Antibody Dilution Buffer) were dispensed into each well. 16 wells of the plate, which were designated as ‘no primary antibody” wells, received only Antibody Dilution Buffer (without anti-BRD4 antibody). Samples were incubated for 2 hours at room temperature. Samples were washed 3 times with 100 μL/well of PBS using a Biotek EL406. Quantitative fluorescence imaging of BRD4 was carried out using a Phenix (Perkin Elmer). Fluorescence images of the samples (Channel 1: Hoechst33342 (DNA stain); Channel 2: 488 nm (BRD4 stain)) were acquired. Channel 1 (DNA stain) was used to define the “Region of Interest” (ROI) nuclear region. Measurements of BRD4 average immunofluorescence intensity within the ROI (nuclear region), were made on a per cell basis and averaged over all the measured cells. Data analysis was carried out using Genedata Screener Software, with DMSO and “no primary antibody” samples being used to define the 0% and 100% changes in BRD4. The “Robust Fit” method was used to define the inflexion point of curve (EC50) and the plateau of the maximal effect (Sinf). The Sinf value reports degradation as percent change in protein level, so complete loss of the protein target is −100%. […]"}, "MYC expression": {"system": "MYC expression", "experiment": "Inhibition of MYC expression in MV-4-11 cells", "assay_type": "cell-based", "conditions": "for IC50: QuantiGene 2.0, geometric mean; for Maximum Inhibition (%): maximum inhibition of MYC expression", "experimental": "Pharmacologic inhibition of MYC is achievable through targeting BET bromodomains through small molecule binder or degrader mechanisms. Such inhibitors may have clinical utility given the widespread pathogenetic role of MYC in cancer. See, e.g., Mertz J, et al., “Targeting MYC dependence in cancer by inhibiting BET bromodomains,” (2011) Proc. Natl. Acad. Sci. USA, Vol. 108 (40), pp. 16669-16674.\nTo determine the inhibition of MYC expression, MV-4-11 cells (ATCC) were plated at 10,000 cells per well in 96-well plates in RPMI1640 media supplemented with 10% fetal bovine serum and 2 mM L-glutamine. Test compounds diluted in DMSO were transferred to the cell plates, keeping final DMSO concentration consistent at 0.1%, and incubated for 4 h at 37° C. Lysis and analysis for MYC expression were carried out using QuantiGene 2.0 reagents (Affymetrix/eBioscience, probe set cat #SA-50182) and following the vendor's instructions. Luminescence was read using an EnVision plate reader (PerkinElmer) and IC50s generated in Genedata Screener using a 4-parameter non-linear regression fit.\nEffective degraders will surpass this and inhibit >95% of MYC, thus following the maximum inhibition within this assay provides valuable SAR. Where more than one measurement was performed for the same assay, the value reported is the geometric mean of all values."}, "VHL Elongin B/C complex": {"target": "VHL Elongin B/C complex (Homo sapiens (Human), UniProt P40337)", "sequence (P40337 whole entry, looked up)": "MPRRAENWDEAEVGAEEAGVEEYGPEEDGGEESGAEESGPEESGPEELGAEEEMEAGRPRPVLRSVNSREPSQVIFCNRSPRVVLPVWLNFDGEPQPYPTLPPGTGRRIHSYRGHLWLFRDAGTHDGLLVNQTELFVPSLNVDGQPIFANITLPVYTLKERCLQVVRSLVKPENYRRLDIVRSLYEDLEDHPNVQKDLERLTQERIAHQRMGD", "sequence (Q15370 whole entry partner, looked up)": "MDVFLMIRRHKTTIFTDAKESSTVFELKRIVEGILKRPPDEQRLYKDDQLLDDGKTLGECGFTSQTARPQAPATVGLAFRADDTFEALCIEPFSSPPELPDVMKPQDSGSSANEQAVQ", "sequence (Q15369 whole entry partner, looked up)": "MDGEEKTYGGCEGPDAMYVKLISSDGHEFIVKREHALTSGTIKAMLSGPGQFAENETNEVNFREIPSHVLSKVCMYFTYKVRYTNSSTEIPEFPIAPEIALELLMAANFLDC", "experiment": "Fluorescence Polarization (FP) VHL Binding Assay", "conditions": "VHL binding, FP assay; geometric mean where more than one measurement", "outline": "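Readout is polarization of a TAMRA-coupled VHL ligand (1.67 nM final) displaced from the VHL(E55-D213)/Elongin B/C complex (2.64 nM final) after 1 h incubation at room temperature in pH 8.0 Tris buffer with 1% DMSO. Data normalized to no-VHL and compound-free controls, with compound fluorescence subtracted, and fitted by four-parameter curve for IC50.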"}, "[1]": {"target": "NanoLuc VHL fusion protein (Homo sapiens (Human), UniProt P40337)", "sequence (P40337 whole entry, looked up, the tested form may be a part)": "as the sequence (P40337 whole entry, looked up) above", "sequence (Q15370 whole entry partner, looked up, the tested form may be a part)": "as the sequence (Q15370 whole entry partner, looked up) above", "sequence (Q15369 whole entry partner, looked up, the tested form may be a part)": "as the sequence (Q15369 whole entry partner, looked up) above", "experiment": "VHL HEK-293 BRET Assay (NanoBRET Target Engagement)", "assay_type": "cell-based", "conditions": "geometric mean where more than one measurement", "outline": "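HEK293 cells stably expressing NanoLuc-VHL, 2 h with compound titration and 1 uM final tracer, then Nano-Glo substrate plus extracellular NanoLuc inhibitor. BRET ratio 610/460 nm, background-corrected with no-tracer wells, normalised to DMSO and 10 uM unlabeled VHL antagonist controls; IC50 by four-parameter fit.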"}, "[2]": {"target": "VHL co-expressed with Elongins B and C (Homo sapiens (Human), UniProt P40337)", "sequence (P40337 whole entry, looked up)": "as the sequence (P40337 whole entry, looked up) above", "sequence (Q15370 whole entry partner, looked up)": "as the sequence (Q15370 whole entry partner, looked up) above", "sequence (Q15369 whole entry partner, looked up)": "as the sequence (Q15369 whole entry partner, looked up) above", "experiment": "Surface Plasmon Resonance Assay", "assay_type": "binding", "conditions": "SPR measured VHL affinity; geometric mean where more than one measurement", "outline": "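Binding kinetics by SPR at 20 °C: compound concentration series run from low to high at 80 μL/min over VHL–Elongin B/C complex, immobilized via avidin tag on SA chip. Buffer was HEPES pH 7.2 with 150 mM NaCl, TCEP, Tween 20, PEG3350 and 2% DMSO; association/dissociation times adjusted per compound.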"}},
  "data": [
    {"smiles": "Cc1ncsc1-c1ccc(C2(C)NC(C3C[C@@H](O)CN3C(=O)C(c3cc(OCCN4CC[C@H](NC(=O)c5cc6c(cc5CS(C)(=O)=O)-c5cn(C)c(=O)c7[nH]cc(c57)CN6c5ncc(F)cc5F)C4)no3)C(C)C)=NC2=O)cc1", "note": "(single isomer, unassigned) [Example 1002.1]", "values": [
      {"measurement": "DC50", "setting": "BRD4", "result": "> 20000", "unit": "nM"},
      {"measurement": "IC50", "setting": "MYC expression; 4 h", "result": 51.5, "unit": "nM"},
      {"measurement": "Maximum Inhibition (%)", "setting": "MYC expression; 4 h", "result": 76.4, "unit": "%"}
    ]},
    {"smiles": "Cc1ncsc1-c1ccc([C@]2(C)NC([C@@H]3C[C@@H](O)CN3C(=O)C(NC(=O)CCCCCCCCCCNC(=O)c3cc4c(cc3CS(C)(=O)=O)-c3cn(C)c(=O)c5[nH]cc(c35)CN4c3ncc(F)cc3F)C(C)(C)C)=NO2)cc1", "note": "(single isomer, unassigned) [Example 1006.1]", "values": [
      {"measurement": "DC50", "setting": "BRD4", "result": 1.02, "unit": "nM"},
      {"measurement": "EOL-1 Sinf (%)", "setting": "BRD4", "result": "−92.6", "unit": "%"}
    ]},
    {"smiles": "Cc1ncsc1-c1ccc(C2(C)NC(C3C[C@@H](O)CN3C(=O)C(c3cc(OCCN4CC[C@H](NC(=O)c5cc6c(cc5CS(C)(=O)=O)-c5cn(C)c(=O)c7[nH]cc(c57)CN6c5ncc(F)cc5F)C4)no3)C(C)C)=NC2=O)cc1", "note": "(single isomer, unassigned) [Example 1002.4]", "values": [
      {"measurement": "IC50", "setting": "MYC expression; 4 h", "result": 80.4, "unit": "nM"},
      {"measurement": "Maximum Inhibition (%)", "setting": "MYC expression; 4 h", "result": 69.9, "unit": "%"}
    ]},
    {"smiles": "Cc1ncsc1-c1ccc(C2(C)NC(C3C[C@@H](O)CN3C(=O)C(c3cc(OCCN4CC[C@H](NC(=O)c5cc6c(cc5CS(C)(=O)=O)-c5cn(C)c(=O)c7[nH]cc(c57)CN6c5ncc(F)cc5F)C4)no3)C(C)C)=NC2=O)cc1", "note": "(single isomer, unassigned) [Example 1002.3]", "values": [
      {"measurement": "Maximum Inhibition (%)", "setting": "MYC expression; 4 h", "result": 69.8, "unit": "%"},
      {"measurement": "IC50", "setting": "MYC expression; Homo sapiens, MV4-11, 4 h", "result": 123, "unit": "nM"}
    ]},
    {"smiles": "Cc1ncsc1-c1ccc([C@]2(C)NC(C3C[C@@H](O)CN3C(=O)C(c3cc(OCCCCCNC(=O)c4cc5c(cc4CS(C)(=O)=O)-c4cn(C)c(=O)c6[nH]cc(c46)CN5c4ncc(F)cc4F)no3)C(C)C)=NC2=O)cc1", "note": "(single isomer, unassigned) [Example 1001.4]", "values": [
      {"measurement": "IC50", "setting": "VHL Elongin B/C complex", "result": "> 100", "unit": "µM"},
      {"measurement": "IC50", "setting": "MYC expression; 4 h", "result": 26.1, "unit": "nM"},
      {"measurement": "Maximum Inhibition (%)", "setting": "MYC expression; 4 h", "result": 75.7, "unit": "%"}
    ]},
    {"smiles": "Cc1ncsc1-c1ccc(C2(C)NC(C3C[C@@H](O)CN3C(=O)C(c3cc(OCCN4CC[C@H](NC(=O)c5cc6c(cc5CS(C)(=O)=O)-c5cn(C)c(=O)c7[nH]cc(c57)CN6c5ncc(F)cc5F)C4)no3)C(C)C)=NC2=O)cc1", "note": "(single isomer, unassigned) [Example 1002.2]", "values": [
      {"measurement": "DC50", "setting": "BRD4", "result": 0.31, "unit": "nM"},
      {"measurement": "EOL-1 Sinf (%)", "setting": "BRD4", "result": "−65.0", "unit": "%"},
      {"measurement": "IC50", "setting": "MYC expression; 4 h", "result": 25.7, "unit": "nM"},
      {"measurement": "Maximum Inhibition (%)", "setting": "MYC expression; 4 h", "result": 90.3, "unit": "%"}
    ]},
    {"smiles": "Cc1ncsc1-c1ccc([C@]2(C)NC(C3C[C@@H](O)CN3C(=O)C(c3cnn(C)c3)C(C)C)=NC2=O)cc1", "note": "(single isomer, unassigned) [Example 110.2]", "values": [
      {"measurement": "IC50", "setting": "[1]", "result": "≥ 100", "unit": "µM"},
      {"measurement": "Kd", "setting": "[2]", "result": 104, "unit": "µM"},
      {"measurement": "IC50", "setting": "VHL Elongin B/C complex", "result": "≥ 400", "unit": "µM"}
    ]}
  ]
}
